pIC50: −log10 of the molar value.
biological target: cGMP-specific 3',5'-cyclic phosphodiesterase PDE V (Sus scrofa); assay: Inhibitory potency against pig aortic PDE V.

| SMILES | pIC50 |
| --- | --- |
| COC(=O)c1ccccc1NC(=O)c1ccc(OC)c(OC2CCCC2)c1 [2-(3-Cyclopentyloxy-4-methoxy-benzoylamino)-benzoic acid methyl ester] | 5.26 |
| COc1ccc(C(=O)Nc2ccccc2F)cc1OC1CCCC1 [3-(cyclopentyloxy)-N-(2-fluorophenyl)-4-methoxybenzamide] | < 3.00 |
| COc1ccc(C(=O)Nc2ccccc2SC)cc1OC1CCCC1 [3-Cyclopentyloxy-4-methoxy-N-(2-methylsulfanyl-phenyl)-benzamide] | < 3.70 |
| COc1ccc(C(=O)Nc2ccccc2C(F)(F)F)cc1OC1CCCC1 [3-Cyclopentyloxy-4-methoxy-N-(2-trifluoromethyl-phenyl)-benzamide] | < 3.00 |
| COc1ccc(C(=O)Nc2ccccc2C)cc1OC1CCCC1 [3-Cyclopentyloxy-4-methoxy-N-o-tolyl-benzamide] | < 3.00 |
| COc1ccc(C(=O)Nc2ccc(C)cc2)cc1OC1CCCC1 [3-Cyclopentyloxy-4-methoxy-N-p-tolyl-benzamide] | < 3.70 |
| COc1ccc(C(=O)Nc2cccc(Cl)c2Cl)cc1OC1CCCC1 [3-Cyclopentyloxy-N-(2,3-dichloro-phenyl)-4-methoxy-benzamide] | < 3.70 |
| COc1ccc(C(=O)Nc2c(F)cccc2F)cc1OC1CCCC1 [3-Cyclopentyloxy-N-(2,6-difluoro-phenyl)-4-methoxy-benzamide] | < 3.00 |
| COc1ccc(C(=O)Nc2ccccc2O)cc1OC1CCCC1 [3-Cyclopentyloxy-N-(2-hydroxy-phenyl)-4-methoxy-benzamide] | 3.76 |
| COc1ccc(C(=O)Nc2ccc(F)cc2)cc1OC1CCCC1 [3-Cyclopentyloxy-N-(4-fluoro-phenyl)-4-methoxy-benzamide] | < 3.00 |
| COc1ccc(C(=O)Nc2ccccc2C(=O)c2ccccc2)cc1OC1CCCC1 [N-(2-Benzoyl-phenyl)-3-cyclopentyloxy-4-methoxy-benzamide] | 5.60 |
| COc1ccc(C(=O)Nc2ccccc2Br)cc1OC1CCCC1 [N-(2-Bromo-phenyl)-3-cyclopentyloxy-4-methoxy-benzamide] | < 3.00 |

Second part, the compound after the results:

| pIC50 | SMILES |
| --- | --- |
| < 3.00 | COc1ccc(C(=O)Nc2c(F)cccc2Cl)cc1OC1CCCC1 [N-(2-Chloro-6-fluoro-phenyl)-3-cyclopentyloxy-4-methoxy-benzamide] |
| < 3.00 | COc1ccc(C(=O)Nc2c(C)cccc2Cl)cc1OC1CCCC1 [N-(2-Chloro-6-methyl-phenyl)-3-cyclopentyloxy-4-methoxy-benzamide] |
| < 3.70 | COc1ccc(C(=O)Nc2ccccc2Cl)cc1OC1CCCC1 [N-(2-Chloro-phenyl)-3-cyclopentyloxy-4-methoxy-benzamide] |
| < 4.40 | COc1ccc(C(=O)Nc2cccc(Cl)c2)cc1OC1CCCC1 [N-(3-Chloro-phenyl)-3-cyclopentyloxy-4-methoxy-benzamide] |
| < 3.00 | COc1ccc(C(=O)Nc2ccc(Cl)cc2)cc1OC1CCCC1 [N-(4-Chloro-phenyl)-3-cyclopentyloxy-4-methoxy-benzamide] |

Source: BindingDB's records for doi:10.1021/jm00037a021 (Rhône-Poulenc Rorer, 1994)
